Where two headings read alike, the source gives them in different places.
Tests used:
Assay type in all cases: biochemical
[1] = molecular target: T1, Electrophorus electricus AChE (EeAChE) (Electrophorus electricus, UniProt O42275); assay: Ellman's spectrophotometric method, percent inhibition of EeAChE (zero time and after 1 h incubation); settings: for % Inhibition vs. EeAChE ± SD: [I] 9 µM; for inhibition at 0.9 µM: read-out: % Inhibition vs. EeAChE ± SD, [I] 900 nM
T1 construct: purchased Sigma-Aldrich (Milan, Italy)
Procedure: (§1) Regarding the synthesized compounds enzymatic inhibition studies were carried out on Electrophorus electricus AChE (EeAChE) and equine BChE (eqBChE), according to Ellman’s spectrophotometric method.
(§2) All other chemical and biological reagents and solvents used were of the highest analytical, commercially available grade. The water, utilized for the preparation of the phosphate buffer and of the solutions of compounds, was distilled and filtered on nylon membrane filters with 0.2 μm pore size with the Millipore® Filtration apparatus before each use. Micropipettes Labmate (BRAND Dig. 10–100 μL; Dig. 100–1000 μL; Dig. 0.1–2 μL) and Transferpette (HIGH TECH LAB LM200: 20–200 μL; LM5000: 1000–5000 μL) were used to collect the samples. The assays were carried out by double beam UV–Vis Lambda 40 Perkin Elmer spectrophotometer, using optical polystyrene cuvettes (10 × 10 × 45 mm, 340–800 nm optical transparency), each measure was repeated at least in triplicate. […] Vivaspin® 2 Sartorius, with a membrane of 3000 MWCO (molecular weight cutoff) consisting of polyethersulfone (PES), cellulose triacetate (CTA) and hydrosart, was used for the ultrafiltration procedures. An ALC PK110 bench-top centrifuge was used for centrifugation. The spectrophotometric method of Ellman, with minor modifications, was used to evaluate the inhibition of cholinesterase enzymes. […] EeAChE and eqBChE were periodically tested to evaluate the effective enzymatic activity.
(§3) An amount of 3.0 mL of a solution in 0.1 M phosphate buffer (pH = 7.4) containing DTNB (0.25 mM) and EeAChE (0.083 UmL^−1) or eqBChE (0.083 UmL^−1) were placed in a polystyrene cuvette of 1.0 cm path length; 1 µL of a solution in DMSO of the tested compound was added to obtain in cuvette concentration range 9 µM–0.09 µM. With this solution the blank was made.
(§4) Each experiment was repeated at least in triplicate.
(§5) The cuvettes were prepared consecutively at intervals of 3 min to allow equal incubation times.

equine BChE (eqBChE) [2] = molecular target: T2, equine BChE (eqBChE) (Equus caballus, UniProt P81908); assay: Ellman's spectrophotometric method, percent inhibition of eqBChE (zero time and after 1 h incubation); settings: for inhibition at 9 µM / % Inhibition vs. eqBChE ± SD: [I] 9 µM; for inhibition at 9 µM / inhibition at 0.9 µM: read-out: % Inhibition vs. eqBChE ± SD
T2 construct: purchased Sigma-Aldrich (Milan, Italy)
Procedure: as §1, §2, §3, §4, §5

equine BChE (eqBChE) [3] = molecular target: T2, equine BChE (eqBChE); assay: Reversibility of inhibition vs. eqBChE (ultrafiltration and washing); settings: for inhibition at 54 µM: carbaryl 54 µM
Procedure: Moreover, it was evaluated whether the inhibition mechanism of carbamate 18 towards eqBChE is reversible, irreversible or pseudo-irreversible. For this purpose, the percentages of inhibition were determined both after one hour of the incubation of compound 18 (5.4 µM) with eqBChE (1.25 U), both following the removal of the inhibitor and the washing of the enzyme, carried out through ultrafiltration devices for the concentration of biological samples [35, 36]. To validate the method, the same study was performed with carbaryl (54 µM), a known carbamoylating cholinesterase inhibitor.
After the incubation phase, the solution containing the inhibitor not bound to the enzyme was removed by centrifugation, retaining eqBChE on the membrane of the ultrafiltration devices. Then the enzyme was washed with phosphate buffer, to remove the bound inhibitor and to restore the enzyme activity.
Three solutions were prepared in 0.1 M phosphate buffer (pH = 7.4), containing eqBChE (0.50 UmL^−1), DTNB (0.3 mM) and acetylthiocholine (10 mM), respectively. A solution of compound 18 in DMSO (2.7 mM) was prepared. Then six Vivaspin® were used: • three were prepared with 2.5 mL of eqBChE solution (0.50 UmL^−1) and 5 µL of inhibitor solution; • three were prepared with 2.5 mL of eqBChE solution (0.50 UmL^−1) and 5 µL of DMSO.
The Vivaspin® thus prepared were incubated for 1 h at 25 °C. After this time the percentage of inhibition was determined following the Ellman method. The blank was recorded by taking 500 µL from the Vivaspin® and diluting them in the cuvette in 2.5 mL of DTNB solution (0.3 mM). The reaction was activated by adding 30 μL of acetylthiocholine solution (10 mM), so as to obtain a final concentration of 100 µM in the cuvette. The absorbance variation was measured between 0.5 and 1.5 min at 412 nm, repeating the measurement for each of the six Vivaspin®.
After this procedure the first centrifugation of the Vivaspin® was carried out for 60 min at 4000 rpm and subsequently the solutions that crossed the membrane and settled in the filtrate tube were removed. In this way the solutions present in the concentrator body were concentrated up to 100 µL. To these solutions 1 mL of 0.1 M phosphate buffer (pH = 7.4) was added and the second centrifugation was carried out for 30 min at 4000 rpm. The solutions present in the concentrator body were concentrated up to 200 µL. The second washing was carried out, adding 1 mL of buffer and centrifuging for 30 min at 4000 rpm. The solutions present in the concentrator body were concentrated up to 250 µL. A third wash was carried out adding 1 mL of buffer and centrifuging for 50 min at 4000 rpm. The solutions present in the concentrator body were concentrated up to 150 µL. At this point, to recover the concentrated solution, the filtrate tube was removed, the concentrator body was turned upside down and inserted inside the concentrate recovery cap. The Vivaspin® was centrifuged for 10 min at 4000 rpm. After this time the recovered solution was taken up with 3 mL of DTNB solution (0.3 mM) and transferred into the cuvette: blank was recorded. The reaction was activated when 30 µL of substrate solution (10 mM) were added so as to have a final concentration of 100 µM in the cuvette. The absorbance variation between 0.5 and 1.5 min was measured at 412 nm, repeating the measurement for each of the recovered solutions.
As a positive control carbaryl was used, for which the same procedure was followed, using a 27 mM carbaryl stock solution in DMSO.

[4] = read-out: % Inhibition vs. EeAChE ± SD, [I] 9 µM, 0.0833 U/mL enzyme, 100 µM acetylthiocholine
[5] = 0.0833 U/mL enzyme, 100 µM acetylthiocholine
[6] = [I] 900 nM, 0.0833 U/mL enzyme, 100 µM acetylthiocholine
[7] = 1 h, read-out: % Inhibition vs. EeAChE ± SD, [I] = 9 µM, t = 1 h incubation at 25 °C
[8] = 1 h, [I] = 900 nM, t = 1 h incubation at 25 °C

T1 sequence (O42275 24-633): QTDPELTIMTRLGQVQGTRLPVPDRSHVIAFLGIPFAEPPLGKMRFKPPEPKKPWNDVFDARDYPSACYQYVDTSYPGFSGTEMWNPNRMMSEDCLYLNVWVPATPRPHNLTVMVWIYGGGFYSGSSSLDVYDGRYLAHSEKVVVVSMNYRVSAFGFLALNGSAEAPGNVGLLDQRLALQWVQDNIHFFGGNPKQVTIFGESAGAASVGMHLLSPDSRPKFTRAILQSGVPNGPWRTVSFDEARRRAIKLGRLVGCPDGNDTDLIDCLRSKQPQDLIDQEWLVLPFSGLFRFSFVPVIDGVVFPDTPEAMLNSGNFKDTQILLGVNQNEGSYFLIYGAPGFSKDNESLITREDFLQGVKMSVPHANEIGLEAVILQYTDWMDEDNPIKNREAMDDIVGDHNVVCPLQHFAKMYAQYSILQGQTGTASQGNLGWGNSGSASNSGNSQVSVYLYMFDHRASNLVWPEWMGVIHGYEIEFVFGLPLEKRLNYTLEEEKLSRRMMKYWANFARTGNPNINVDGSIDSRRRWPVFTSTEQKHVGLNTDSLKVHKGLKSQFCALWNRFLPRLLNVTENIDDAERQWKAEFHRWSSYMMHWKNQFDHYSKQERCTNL
T2 sequence (P81908 whole entry): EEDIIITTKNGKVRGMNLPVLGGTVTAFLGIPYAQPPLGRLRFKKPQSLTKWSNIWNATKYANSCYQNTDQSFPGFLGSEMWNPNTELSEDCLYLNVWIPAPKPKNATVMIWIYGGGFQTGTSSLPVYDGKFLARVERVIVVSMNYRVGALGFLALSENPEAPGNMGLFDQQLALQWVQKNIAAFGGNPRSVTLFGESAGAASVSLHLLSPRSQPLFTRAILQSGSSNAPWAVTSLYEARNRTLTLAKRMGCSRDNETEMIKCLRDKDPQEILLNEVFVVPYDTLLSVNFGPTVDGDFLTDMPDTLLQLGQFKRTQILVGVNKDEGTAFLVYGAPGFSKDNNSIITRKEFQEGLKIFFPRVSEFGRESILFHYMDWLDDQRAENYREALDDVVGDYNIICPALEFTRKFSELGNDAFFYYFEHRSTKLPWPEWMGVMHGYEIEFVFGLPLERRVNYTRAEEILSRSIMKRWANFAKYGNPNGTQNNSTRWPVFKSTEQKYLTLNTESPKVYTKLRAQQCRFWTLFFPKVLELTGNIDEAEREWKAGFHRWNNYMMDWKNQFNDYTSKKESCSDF

O=C(NCCCCCCNc1ncccn1)c1ccccc1 [Compound 3, N-(6-(pyrimidin-2-ylamino)hexyl)benzamide]
inhibition at 9 µM [1, 4]: ~3%
inhibition at 9 µM (equine BChE (eqBChE) [2]; [5]): ~9%

O=C(Cc1ccccc1)NCCCCCCNc1ncccn1 [Compound 4, 2-phenyl-N-(6-(pyrimidin-2-ylamino)hexyl)acetamide]
inhibition at 9 µM [1, 4]: 5 ± 4.4%
inhibition at 9 µM (equine BChE (eqBChE) [2]; [5]): 5.1 ± 4.7%

O=C(Cc1ccc(Oc2ccccc2)cc1)NCCCCCCNc1ncccn1 [Compound 5, 2-(4-phenoxyphenyl)-N-(6-(pyrimidin-2-ylamino)hexyl)acetamide]
inhibition at 9 µM [1, 4]: 10.8 ± 2.7%
inhibition at 9 µM (equine BChE (eqBChE) [2]; [5]): 16.6 ± 5.5%

O=C(C=Cc1ccccc1)NCCCCCCNc1ncccn1 [Compound 6, N-(6-(pyrimidin-2-ylamino)hexyl)cinnamamide]
% Inhibition vs. EeAChE ± SD [1, 5]: ns ^c
inhibition at 0.9 µM [1, 5]: 7 ± 1.6%
% Inhibition vs. eqBChE ± SD (equine BChE (eqBChE) [2]; [5]): ns ^c

O=C(NCCCCCCNc1ncccn1)c1ccc(Br)cc1 [Compound 7, 4-bromo-N-(6-(pyrimidin-2-ylamino)hexyl)benzamide]
inhibition at 9 µM [1, 4]: 11.2 ± 5%
inhibition at 9 µM (equine BChE (eqBChE) [2]; [5]): 7.4 ± 2%

O=C(NCCCCCCNc1ncccn1)c1ccc(Cl)cc1 [Compound 8, 4-chloro-N-(6-(pyrimidin-2-ylamino)hexyl)benzamide]
inhibition at 9 µM [1, 4]: 9.9 ± 0.8%
inhibition at 9 µM (equine BChE (eqBChE) [2]; [5]): 2.1 ± 3.5%

COc1ccccc1C(=O)NCCCCCCNc1ncccn1 [Compound 9, 2-methoxy-N-(6-(pyrimidin-2-ylamino)hexyl)benzamide]
inhibition at 9 µM [1, 4]: 7.2 ± 0.8%
inhibition at 9 µM (equine BChE (eqBChE) [2]; [5]): 9.3 ± 2.4%

O=C(NCCCCCCNc1ncccn1)c1cc2ccccc2[nH]1 [Compound 11, N-(6-(pyrimidin-2-ylamino)hexyl)-1H-indole-2-carboxamide]
% Inhibition vs. EeAChE ± SD [1, 5]: ns ^c
inhibition at 0.9 µM [1, 5]: 5.5 ± 1.4%
inhibition at 0.9 µM (equine BChE (eqBChE) [2]; [6]): 14.1 ± 4.7%
% Inhibition vs. eqBChE ± SD (equine BChE (eqBChE) [2]; [5]): ns ^c

O=C(Cc1ccccc1)NCCCCCCNc1ccccn1 [Compound 13, 2-phenyl-N-(6-(pyridine-2-ylamino)hexyl)acetamide]
inhibition at 9 µM [1, 4]: 46.7 ± 1.1%
inhibition at 0.9 µM (equine BChE (eqBChE) [2]; [6]): 4.3 ± 5.6%
inhibition at 9 µM (equine BChE (eqBChE) [2]; [5]): 49.1 ± 3.2%

O=C(C=Cc1ccccc1)NCCCCCCNc1ccccn1 [Compound 15, N-(6-(pyridin-2-ylamino)hexyl)cinnamamide]
inhibition at 9 µM [1, 4]: 45.4 ± 2.5%
inhibition at 0.9 µM (equine BChE (eqBChE) [2]; [6]): 31.5 ± 3.1%
inhibition at 9 µM (equine BChE (eqBChE) [2]; [5]): 64.7 ± 2.9%

O=C(NCCCCCCNc1ncccn1)Oc1ccccc1 [Compound 16, Phenyl (6-(pyrimidin-2-ylamino)hexyl)carbamate]
inhibition at 9 µM [1, 7]: 7.2 ± 0.8%
inhibition at 0.9 µM (equine BChE (eqBChE) [2]; [8]): 66.4 ± 5.9%

O=C(NCCCCCCNc1ncccn1)OCc1ccccc1 [Compound 17, Benzyl (6-(pyrimidin-2-ylamino)hexyl)carbamate]
inhibition at 9 µM [1, 7]: 10.9 ± 1.4%
inhibition at 0.9 µM (equine BChE (eqBChE) [2]; [8]): 13.3 ± 3.9%

O=C(NCCCCCCNc1ccccn1)OCc1ccccc1 [Compound 19, Benzyl (6-(pyridin-2-ylamino)hexyl)carbamate]
inhibition at 9 µM [1, 7]: 45.4 ± 2.7%
inhibition at 0.9 µM (equine BChE (eqBChE) [2]; [8]): 32.4 ± 7.5%

CNC(=O)Oc1cccc2ccccc12 [carbaryl, reference compound]
inhibition at 54 µM (equine BChE (eqBChE) [3]; after ultrafiltration and washing with phosphate buffer, read-out: percentage of inhibition of eqBChE after removal of inhibitor and washing of the enzyme): 29.9%
inhibition at 54 µM (equine BChE (eqBChE) [3]; before washing, read-out: percentage of inhibition of eqBChE after one hour of incubation): 97.4%
inhibition mechanism towards eqBChE (reversible, irreversible or pseudo-irreversible) (equine BChE (eqBChE) [3]; from restoration of enzymatic activity after washing): pseudo-irreversible

— publication PMC9227096, “Design, Synthesis, and In Vitro, In Silico and In Cellulo Evaluation of New Pyrimidine and Pyridine Amide and Carbamate Derivatives as Multi-Functional Cholinesterase Inhibitors” (Pharmaceuticals, 2022)
